# From patent US20230061223A1, “USE OF 5-AMINO-2,3-DIHYDRO-1,4-PHTHALAZINEDIONE IN THE INHALATORY TREATMENT OF INFLAMMATORY PULMONARY DISEASES” (MetrioPharm AG, priority 2020, published 2023)
# Read-outs that look alike come from different tables or passages of the source.
# Key:
# [1] = tested on: cigarette smoke-induced 3-nitrotyrosine formation in the lung parenchyma; conditions: for 3-nitrotyrosine stained surface area, mean ± SEM: n=5 mice, room air 0.24, smoke alone 3.07
# Protocol: 5-amino-2,3-dihydro-1,4-phthalazinedione sodium salt Form I was tested in an isolated, ventilated and perfused mouse lung system that was stimulated with cigarette smoke.
# The isolated, ventilated and perfused mouse lung system (ILU) is an established model for studying acute effects of various conditions and drugs on lung parenchyma and vasculature. It is mainly used for examining effects of hypoxia and for evaluating the efficacy of potential drugs on the hypoxic pulmonary vasoreaction (cf. Weissmann et al. (2006) Proc Natl Acad Sci USA 103: 19093-19098).
# C57BL/6J mice (n=25, 5 per group; male/female, 3-6 months, 20-30 g; Charles River GmbH, Sulzfeld, Germany) were anesthetized with a ketamine (100 mg/kg body weight) and xylazine (20 mg/kg body weight) intraperitoneal injection (Ceva Tiergesundheit GmbH, Dusseldorf, Germany) containing heparin (50 I.E. heparin/g body weight; Ratiopharm GmbH, Ulm, Germany). The lungs and the heart were removed from the chest cavity and placed on the ILU system (see FIGS. 1A and 1B). Lungs were ventilated in an isolated chamber using normoxic gas (21% O2, 5% CO2, 74% N2; 150 breaths per minute at the PEEP (positive end-expiratory pressure) of 3 cm H2O) and perfused with a modified Krebs-Henseleit buffer (120.0 mM NaCl, 4.3 mM KCl, 1.1 mM KH2PO4, 2.4 mM CaCl2, 1.3 mM MgCl2, 13.14 mM glucose, 0.25 mM hydroxyethyl starch 200000/0.5, 25.0 mM NaHCO3 adjusted to a constant pH range of […] L-arginine; Serag-Wissner GmbH & Co. KG, Naila, Germany) at a temperature of 37° C. Lung weight, right and left ventricle pressure, as well as ventilatory pressure were monitored and recorded during the whole experimental procedure. After 5-10 minutes, when the lung was properly flushed and all the parameters were stable, 5-amino-2,3-dihydro-1,4-phthalazinedione sodium salt was applied by adding 150 μl of a stock solution to 15 ml of the circulating perfusion buffer. The substance was applied 10 minutes prior to the first cigarette smoke application. Cigarette smoke was applied via trachea while lung is perfused with the buffer containing 5-amino-2,3-dihydro-1,4-phthalazinedione sodium salt. Cigarette smoke was prepared freshly before each application, by burning one cigarette (research cigarettes 3R4F, University of Kentucky, USA) in one minute using normoxic gas at the flow of 11/min and collected in a 11 glass bottle containing 5 g silica gel for removing the moist from the cigarette smoke. 50 ml of the cigarette smoke were taken via a syringe and applied to the lung via trachea (FIG. 1A) in deep breaths (periodic inflation for 3-4 s) over a period of 5 min. The application was done manually while carefully monitoring the inspiratory pressure to avoid damage of the lung. The cigarette smoke application was repeated three times with a 1 hour break in-between.
# Five treatment groups (n=5, respectively) were investigated:
# C: cigarette smoke+0.5 mM 5-amino-2,3-dihydro-1,4-phthalazinedione sodium salt
# D: cigarette smoke+1 mM 5-amino-2,3-dihydro-1,4-phthalazinedione sodium salt
# E: cigarette smoke+2 mM 5-amino-2,3-dihydro-1,4-phthalazinedione sodium salt
# 5-amino-2,3-dihydro-1,4-phthalazinedione sodium salt Form I was dissolved in water for injection (vehicle) at the required concentrations described above. Stock solutions were prepared in water for injection. Further 1:100 dilutions were made with modified Krebs-Henseleit buffer (see above). Stock solutions were stored at −70° C. in appropriate aliquots. The required amount of stock solution was thawed, and the corresponding working solution was prepared for immediate use.
# One hour after the third cigarette smoke application lungs were removed from the system and fixed by inflating with formalin solution (via trachea) at the pressure of 12-15 cm H2O for two hours at room temperature. Afterwards the fixed lungs were kept in PBS (phosphate buffer saline, see below) at +4° C. until further dehydration and paraffin embedding.
# [2] = aerosol characterisation (MMAD, FPF, FPM) by cascade impactor (Next Generation Impactor) after vibrating mesh nebulization; format: physicochemical; conditions: for FPF (fine particle fraction, <5 μm) / FPM (fine particle mass, 1 μm to 5 μm) / MMAD: vibrating mesh nebulizer; for FPF (fine particle fraction, <5 μm) / FPM (fine particle mass, 1 μm to 5 μm) / MMAD / released dosage: NGI at 4° C.; for released dosage at the mouthpiece as percentage of the nominal value: 3 min nebulization; for released dosage: at the mouthpiece, M-neb dose+ mesh nebulizer; for time of aerosol release: corresponds to 30 strokes/breaths; for residual amounts in the mouthpiece: mouthpiece SK-211
# Protocol: It is expressly stated that the values and ranges disclosed herein refer to measurements of the MMAD, FPF and FPM by means of a cascade impactor (Next Generation Impactor, NGI) cooled down to 4° C.
# The particle size distribution (FPM) and the mass median aerodynamic diameter (MMAD) of an aerosol generated from an aqueous solution containing 5-amino-2,3-dihydro-1,4-phthalazinedione sodium salt was analyzed.
# Crystalline polymorph Form I of 5-amino-2,3-dihydro-1,4-phthalazinedione sodium salt was solved in physiological saline solution (double distilled water containing 0.9% NaCl). The final concentration solution was 20 mg/ml 5-amino-2,3-dihydro-1,4-phthalazinedione sodium salt.
# The experimental procedure was carried out pursuant to Ph. Eur. 2.9.44 (Preparations for Nebulisation: Characterisation). A cascade impactor (Next Generation Impactor (NGI), Copley Scientific Ltd., Nottingham, UK) was used to determine the respective percentage for each fraction of the nebulized particles. The cascade impactor was cooled to 4° C. for the measurements
# The nebulization of this aqueous solution of 5-amino-2,3-dihydro-1,4-phthalazinedione sodium salt was carried out by means of a vibrating mesh nebulizer (M-neb-dose+, NEBU-TEC, Eisenfeld, Germany). The thus generated aerosol was delivered to the cascade impactor by means of a mouthpiece (SK-211, NEBU-TEC, Eisenfeld, Germany).
# The nebulization chamber (yellow stamp, 250 μl liquid discharge) was filled. The puff profile configured at the breath simulator was chosen in such a way that a correct simulation of inhalation by means of the nebulizer was ensured. The corresponding time was recorded.
# The quantification of nebulized 5-amino-2,3-dihydro-1,4-phthalazinedione sodium salt per cascade was carried out after extraction from the cascade pans (stage 1-8) by means of HPLC with reference to an external standard calibration curve (range 0-200 μg/ml; correlation coefficient: 0.9999).
# Single values obtained for each cascade were added. […] MMAD, FPF and FPM were calculated from the obtained values: […]
# For comparison, the particle size distribution (FPF and FPM) and the mass median aerodynamic diameter (MMAD) of an aerosol generated from a physiological saline solution containing salbutamol sulfate was analyzed (not part of the invention). The procedure was the same as described in Example 2.
# Salbutamol is one of the most widely used substances for acute asthma attacks. It is often administered via metered-dose inhalers. Therefore, a physiological saline solution of salbutamol sulfate was tested in order to determine the particle size distribution. The standard dosage (Albutol Sulfate) of 180 μg (90 μg/spray application, 2 spray applications per inhalation session) was dissolved in physiological saline.
# The procedure was the same as described in Example 2.
# The standard dosage (Atrovent) of 18 μg/spray application was dissolved in physiological saline.
# [3] = 20 mg/ml in physiological saline
# [4] = aerosol from physiological saline solution
# [5] = standard dosage in physiological saline
Compound,released dosage at the mouthpiece as percentage of the nominal value [2] [%],"FPF (fine particle fraction, <5 μm) [2, 4] [%]","MMAD [2, 4] [μm]",time of aerosol release [2] [min],residual amounts in the mouthpiece [2],"FPM (fine particle mass, 1 μm to 5 μm) [2, 4] [%]","released dosage [2, 5] [µg]","FPM (fine particle mass, 1 μm to 5 μm) [2, 5] [µg]",further results
"Nc1cccc2c(=O)[nH][nH]c(=O)c12.[Na] [5-amino-2,3-dihydro-1,4-phthalazinedione sodium salt]",95,74.3,3.1,3,No residual amounts,,,,"effect on cigarette smoke induced 3-nitrotyrosine formation (in words) ([1]; 0.5 mM in perfusion buffer): moderate effect; effect on cigarette smoke induced 3-nitrotyrosine formation (in words) ([1]; 1 mM in perfusion buffer): almost completely abolished; effect on cigarette smoke induced 3-nitrotyrosine formation (in words) ([1]; 2 mM in perfusion buffer): almost completely abolished; cigarette smoke-induced 3-nitrotyrosine formation in the lung parenchyma, pre-treatment (in words) ([1]; ILU model, pre-treatment): prevents; 3-nitrotyrosine stained surface area, mean ± SEM ([1]; cigarette smoke + 0.5 mM in perfusion buffer): 2.24 ± 0.28 % area; 3-nitrotyrosine stained surface area, mean ± SEM ([1]; cigarette smoke + 1 mM in perfusion buffer): 0.72 ± 0.26 % area; 3-nitrotyrosine stained surface area, mean ± SEM ([1]; cigarette smoke + 2 mM in perfusion buffer): 0.37 ± 0.13 % area; ROS/RNS levels in cigarette smoke-stimulated mouse lung (in words) ([1]; ex vivo mouse lung, 0.5-2 mM): dose-dependent reduction of ROS/RNS levels down to control levels; FPF (fine particle fraction, <5 μm) [2, 3]: 3.5 mg; FPM (fine particle mass, 1 μm to 5 μm) [2, 3]: 3300 µg; FPM (fine particle mass, 1 μm to 5 μm) ([2]; aerosol from physiological saline solution, sodium salt): 69.0%; released dosage [2, 3]: 4700 µg; FPF in comparison ([2]; versus ipratropium bromide): slightly higher; FPM in comparison ([2]; versus ipratropium bromide): slightly smaller; MMAD in comparison ([2]; versus ipratropium bromide): clearly smaller; FPF in comparison ([2]; versus salbutamol sulfate): slightly higher; FPM in comparison ([2]; versus salbutamol sulfate): in a similar range; MMAD in comparison ([2]; versus salbutamol sulfate): clearly smaller"
"CC(C)[N+]1(C)[C@@H]2CC[C@H]1CC(OC(=O)C(CO)c1ccccc1)C2.[Br-] (stereo partly drawn) [ipratropium bromide, reference compound]",86,,3.59,3,No residual amounts,69.4,15,10,
salbutamol sulfate [reference compound],92,73.3,3.57,3,No residual amounts,69.1,166,115,"FPF (fine particle fraction, <5 μm) [2, 5]: 0.122 mg"
